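Five compound concentrations were applied to cells in 96-well plates for 48 hours; endpoints were derived by simple linear interpolation of the resulting dose-response curve. Definition used: TGI = concentration required for complete inhibition of growth.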
Tests used:
Assay in all cases: NCI anticancer screen, dose series, 48 h
NCI-H522 lung = tested on: NCI-H522 lung
UACC-257 melanoma = tested on: UACC-257 melanoma
OVCAR-5 ovarian = tested on: OVCAR-5 ovarian
SNB-19 CNS = tested on: SNB-19 CNS
NCI-H460 lung = tested on: NCI-H460 lung
SK-MEL-28 melanoma = tested on: SK-MEL-28 melanoma
SK-MEL-2 melanoma = tested on: SK-MEL-2 melanoma
MDA-MB-435 = tested on: MDA-MB-435
T-47D breast = tested on: T-47D breast
RXF 393 renal = tested on: RXF 393 renal
OVCAR-4 ovarian = tested on: OVCAR-4 ovarian
KM12 colon = tested on: KM12 colon
HS 578T breast = tested on: HS 578T breast
U251 CNS = tested on: U251 CNS
EKVX NSCLC = tested on: EKVX NSCLC
SK-MEL-5 melanoma = tested on: SK-MEL-5 melanoma
NCI-H23 lung = tested on: NCI-H23 lung
ACHN renal = tested on: ACHN renal
PC-3 prostate = tested on: PC-3 prostate
HL-60(TB) leukemia = tested on: HL-60(TB) leukemia
MALME-3M melanoma = tested on: MALME-3M melanoma
NCI/ADR-RES ovarian = tested on: NCI/ADR-RES ovarian
UO-31 renal = tested on: UO-31 renal
HCC-2998 colon = tested on: HCC-2998 colon
HT29 colon = tested on: HT29 colon
SK-OV-3 ovarian = tested on: SK-OV-3 ovarian
DU-145 prostate = tested on: DU-145 prostate
NCI-H226 lung = tested on: NCI-H226 lung
BT-549 breast = tested on: BT-549 breast
A549 NSCLC = tested on: A549 NSCLC
UACC-62 melanoma = tested on: UACC-62 melanoma
SR leukemia = tested on: SR leukemia
SF-268 CNS = tested on: SF-268 CNS
M14 melanoma = tested on: M14 melanoma
HOP-62 NSCLC = tested on: HOP-62 NSCLC
786-0 renal = tested on: 786-0 renal
TK-10 renal = tested on: TK-10 renal
HCT-116 colon = tested on: HCT-116 colon
HOP-92 NSCLC = tested on: HOP-92 NSCLC
A498 renal = tested on: A498 renal
LOX IMVI melanoma = tested on: LOX IMVI melanoma
CCRF-CEM leukemia = tested on: CCRF-CEM leukemia
OVCAR-3 ovarian = tested on: OVCAR-3 ovarian
SW-620 colon = tested on: SW-620 colon
HCT-15 colon = tested on: HCT-15 colon
SNB-75 CNS = tested on: SNB-75 CNS
SF-295 CNS = tested on: SF-295 CNS
MDA-N = tested on: MDA-N
SN12C renal = tested on: SN12C renal
COLO 205 colon = tested on: COLO 205 colon
MDA-MB-231 breast = tested on: MDA-MB-231 breast
SF-539 CNS = tested on: SF-539 CNS
CAKI-1 renal = tested on: CAKI-1 renal
OVCAR-8 ovarian = tested on: OVCAR-8 ovarian
MCF7 breast = tested on: MCF7 breast
IGROV1 ovarian = tested on: IGROV1 ovarian
RPMI-8226 leukemia = tested on: RPMI-8226 leukemia
MOLT-4 leukemia = tested on: MOLT-4 leukemia
K-562 leukemia = tested on: K-562 leukemia

Compound: C[n+]1c2ccccc2n2c3ccccc3c(NCCCN3CCOCC3)c(C#N)c21
- TGI (NCI-H522 lung): 2.25 µM
- TGI (UACC-257 melanoma): 16.7 µM
- TGI (OVCAR-5 ovarian): 5.61 µM
- TGI (SNB-19 CNS): > 26.8 µM
- TGI (NCI-H460 lung): 2.75 µM
- TGI (SK-MEL-28 melanoma): > 20.4 µM
- TGI (SK-MEL-2 melanoma): 6.42 µM
- TGI (MDA-MB-435): 14.1 µM
- TGI (T-47D breast): > 26.3 µM
- TGI (RXF 393 renal): 3.91 µM
- TGI (OVCAR-4 ovarian): 8.81 µM
- TGI (KM12 colon): 15.8 µM
- TGI (HS 578T breast): 6.47 µM
- TGI (U251 CNS): > 28.4 µM
- TGI (EKVX NSCLC): 15.1 µM
- TGI (SK-MEL-5 melanoma): 9.87 µM
- TGI (NCI-H23 lung): 8.08 µM
- TGI (ACHN renal): > 25.5 µM
- TGI (PC-3 prostate): > 30 µM
- TGI (HL-60(TB) leukemia): > 100 µM
- TGI (MALME-3M melanoma): 3.96 µM
- TGI (NCI/ADR-RES ovarian): > 76.8 µM
- TGI (UO-31 renal): 15.3 µM
- TGI (HCC-2998 colon): 3 µM
- TGI (HT29 colon): > 100 µM
- TGI (SK-OV-3 ovarian): 31.9 µM
- TGI (DU-145 prostate): 18.2 µM
- TGI (NCI-H226 lung): 6.2 µM
- TGI (BT-549 breast): > 100 µM
- TGI (A549 NSCLC): 23.8 µM
- TGI (UACC-62 melanoma): 13.8 µM
- TGI (SR leukemia): > 100 µM
- TGI (SF-268 CNS): 5.39 µM
- TGI (M14 melanoma): 2.85 µM
- TGI (HOP-62 NSCLC): > 33.5 µM
- TGI (786-0 renal): 8.32 µM
- TGI (TK-10 renal): 10.8 µM
- TGI (HCT-116 colon): 8.32 µM
- TGI (HOP-92 NSCLC): > 100 µM
- TGI (A498 renal): > 29 µM
- TGI (LOX IMVI melanoma): 2.64 µM
- TGI (CCRF-CEM leukemia): > 100 µM
- TGI (OVCAR-3 ovarian): > 28.1 µM
- TGI (SW-620 colon): 36.6 µM
- TGI (HCT-15 colon): 19.4 µM
- TGI (SNB-75 CNS): 5.4 µM
- TGI (SF-295 CNS): 14.8 µM
- TGI (MDA-N): 2.9 µM
- TGI (SN12C renal): 6.44 µM
- TGI (COLO 205 colon): 3.15 µM
- TGI (MDA-MB-231 breast): 4.94 µM
- TGI (SF-539 CNS): 3.57 µM
- TGI (CAKI-1 renal): 8.38 µM

Compound: C=CCN(Cc1ccncc1)C(=O)C(O)(c1ccccc1)c1ccccc1
- TGI (NCI-H522 lung): > 100 µM
- TGI (UACC-257 melanoma): > 100 µM
- TGI (OVCAR-5 ovarian): > 100 µM
- TGI (SNB-19 CNS): > 100 µM
- TGI (SK-MEL-28 melanoma): > 100 µM
- TGI (MDA-MB-435): > 100 µM
- TGI (OVCAR-8 ovarian): > 100 µM
- TGI (MCF7 breast): > 100 µM
- TGI (T-47D breast): > 100 µM
- TGI (RXF 393 renal): > 100 µM
- TGI (KM12 colon): > 100 µM
- TGI (U251 CNS): > 100 µM
- TGI (EKVX NSCLC): > 100 µM
- TGI (SK-MEL-5 melanoma): > 100 µM
- TGI (NCI-H23 lung): > 100 µM
- TGI (ACHN renal): > 100 µM
- TGI (PC-3 prostate): > 100 µM
- TGI (IGROV1 ovarian): > 100 µM
- TGI (HL-60(TB) leukemia): > 100 µM
- TGI (MALME-3M melanoma): > 100 µM
- TGI (NCI/ADR-RES ovarian): 37.4 µM
- TGI (RPMI-8226 leukemia): 78.6 µM
- TGI (UO-31 renal): 56.5 µM
- TGI (HCC-2998 colon): > 100 µM
- TGI (HT29 colon): > 100 µM
- TGI (SK-OV-3 ovarian): > 100 µM
- TGI (DU-145 prostate): > 100 µM
- TGI (MOLT-4 leukemia): > 100 µM
- TGI (NCI-H226 lung): > 100 µM
- TGI (BT-549 breast): > 100 µM
- TGI (A549 NSCLC): > 100 µM
- TGI (UACC-62 melanoma): > 100 µM
- TGI (SR leukemia): > 100 µM
- TGI (SF-268 CNS): > 100 µM
- TGI (M14 melanoma): > 100 µM
- TGI (HOP-62 NSCLC): > 100 µM
- TGI (786-0 renal): > 100 µM
- TGI (TK-10 renal): > 100 µM
- TGI (HCT-116 colon): > 100 µM
- TGI (K-562 leukemia): > 100 µM
- TGI (LOX IMVI melanoma): > 100 µM
- TGI (CCRF-CEM leukemia): > 100 µM
- TGI (OVCAR-3 ovarian): > 100 µM
- TGI (SW-620 colon): > 100 µM
- TGI (HCT-15 colon): > 100 µM
- TGI (SNB-75 CNS): > 100 µM
- TGI (SF-295 CNS): > 100 µM
- TGI (MDA-N): > 100 µM
- TGI (SN12C renal): > 100 µM
- TGI (COLO 205 colon): > 100 µM
- TGI (MDA-MB-231 breast): > 100 µM
- TGI (SF-539 CNS): > 100 µM
- TGI (CAKI-1 renal): > 100 µM

— PubChem BioAssay (NCI)
